Laboratory results reported in patent US9340569B2, “Methods and compositions for inhibiting clostridium difficile spore germination and outgrowth” (priority 2008, dated 2016).
“Also recorded” adds a separate entry of the source. Where a name gives a salt, the structure may show the parent alone. Read-outs that look alike come from different tables or passages of the source.

Legend:
[1] = system: C. difficile spores; assay: Inhibition of taurocholate-induced C. difficile spore germination, Ki from Lineweaver-Burk plot; format: cell-based, Clostridium difficile; conditions: for Inhibits Germination?: BHIS with 2-50 mM taurocholate plus inhibitor, OD600; for Ki: binding constant of inhibitor for the spore, competition with taurocholate
[2] = system: C. difficile spores; format: cell-based, Clostridium difficile
[3] = system: C. perfringens SM101; format: cell-based, Clostridium perfringens
[4] = system: vegetative C. difficile; format: cell-based, Clostridium difficile
[5] = system: C. difficile spores; format: cell-based, Clostridium difficile; remark: listed apart in the source
[6] = system: C. difficile spores
[7] = rat, in vivo; cited from earlier work
[8] = in vivo; cited from earlier work

COC(=O)CC[C@@H](C)[C@H]1CC[C@H]2[C@@H]3C[C@@H](O)[C@@H]4C[C@H](O)CC[C@]4(C)[C@H]3CC[C@]12C [5β-cholanic acid 3α,6β diol methyl ester]
Inhibits Germination? [1]: Yes
Ki [1]: 48 µM

COC(=O)CC[C@@H](C)[C@H]1CC[C@H]2[C@@H]3[C@H](O)C[C@@H]4C[C@H](O)CC[C@]4(C)[C@H]3CC[C@]12C [5β-cholanic acid 3α,7α diol methyl ester, 5β-cholanic acid-3α,7α-diol methyl ester]
Inhibits Germination? [1]: Yes
Ki [1]: 22 µM

CC(=O)O[C@@H]1CC[C@@]2(C)[C@H](CC[C@@H]3[C@@H]2CC[C@]2(C)[C@@H]([C@H](C)CCC(=O)O)CC[C@@H]32)C1 [5β-cholanic acid 3α-ol-acetate]
Inhibits Germination? [1]: No

COC(=O)CC[C@@H](C)[C@H]1CC[C@H]2[C@@H]3[C@H](O)C[C@@H]4C[C@H](OC(C)=O)CC[C@]4(C)[C@H]3CC[C@]12C [5β-cholanic acid-3α,7α-diol 3-acetate methyl ester]
Inhibits Germination? [1]: Yes
Ki [1]: 40 µM

COC(=O)CC[C@@H](C)[C@H]1CC[C@H]2[C@@H]3[C@H](OC(C)=O)C[C@@H]4C[C@H](OC(C)=O)CC[C@]4(C)[C@H]3CC[C@]12C [5β-cholanic acid-3α,7α-diol diacetate methyl ester]
affinity for C. difficile spores relative to chenodeoxycholate [1]: 7-8 times
potency as inhibitor of spore germination relative to chenodeoxycholate [1]: approximately ten times more potent
Inhibits Germination? [1]: Yes
Ki [1]: 40 µM

CC(CCC(=O)O)C1CCC2C3CC(=O)C4CC(O)CCC4(C)C3CCC12C (stereo not shown) [6-ketolithocholate]
Inhibits Germination? [1]: Yes
Ki [1]: 200 µM

C[C@H](CCC(=O)O)[C@H]1CC[C@H]2[C@@H]3[C@H](O)C[C@@H]4C[C@H](O)CC[C@]4(C)[C@H]3C[C@H](O)[C@]12C [CA, cholate]
germination (decrease in optical density) in BHIS [2]: did not result in any significant decrease in the optical density
growth of vegetative C. perfringens [3]: able to grow, however, to wild-type levels
growth of vegetative C. difficile [4]: able to grow
colony formation by spores, in words [5]: stimulated efficient colony formation

C[C@H](CCC(=O)O)[C@H]1CC[C@H]2[C@@H]3[C@H](O)C[C@@H]4C[C@H](O)CC[C@]4(C)[C@H]3CC[C@]12C [CDCA, chenodeoxycholate]
growth of vegetative C. perfringens [3]: unable to grow; also recorded: inhibited the growth
colony formation after transient exposure, in words [6]: did not induce colony formation
inhibition of colony formation in response to cholate [6]: inhibited colony formation
inhibition of colony formation in response to taurocholate [6]: inhibited colony formation
growth of vegetative C. difficile [4]: unable to grow; also recorded: inhibited the growth
inhibition of vegetative growth of C. difficile, general statement [4]: capable of inhibiting the vegetative growth

C[C@H](CCC(=O)O)[C@H]1CC[C@H]2[C@@H]3CC[C@@H]4C[C@H](O)CC[C@]4(C)[C@H]3C[C@H](O)[C@]12C [DCA, deoxycholate]
germination (decrease in optical density) in BHIS [2]: small drop in OD600 that after 60 min was not significantly more than the change in OD of spores in BHIS alone
growth of vegetative C. perfringens [3]: neither C. difficile nor C. perfringens grew
colony formation after transient exposure, in words [6]: indistinguishable from that of spores incubated with taurocholate
growth of vegetative C. difficile [4]: neither C. difficile nor C. perfringens grew

C[C@H](CCC(=O)NCC(=O)O)[C@H]1CC[C@H]2[C@@H]3[C@H](O)C[C@@H]4C[C@H](O)CC[C@]4(C)[C@H]3C[C@H](O)[C@]12C [GA, glycocholate]
germination (decrease in optical density) in BHIS [2]: did not result in any significant decrease in the optical density
growth of vegetative C. perfringens ([3]; BHIS containing 0.1% bile salt): able to grow, however, to wild-type levels
growth of vegetative C. difficile [4]: able to grow
colony formation by spores, in words [5]: stimulated efficient colony formation

CCN(CCS(=O)(=O)O)C(=O)CC[C@@H](C)[C@H]1CC[C@H]2[C@@H]3[C@@H](O)C[C@@H]4C[C@H](O)CC[C@]4(C)[C@H]3CC[C@]12C [N-ethyl-tauroursodeoxycholate]
deconjugation [7]: 3.4+/−2.1%

C[C@H](CCC(=O)NCCS(=O)(=O)O)[C@H]1CC[C@H]2[C@@H]3[C@H](O)C[C@@H]4C[C@H](O)CC[C@]4(C)[C@H]3CC[C@]12C [Taurochenodeoxycholate, 5β-cholanic acid-3α,7α-diol n-(2-sulphoethyl)-amide sodium salt]
Inhibits Germination? ([1]; listed as taurochenodeoxycholate, sodium salt): neither 5β-cholanic acid 3α-ol-acetate nor taurochenodeoxycholate was observed to inhibit
Inhibits Germination? ([1]; sodium salt): No

C[C@H](CCC(=O)O)[C@H]1CC[C@H]2[C@@H]3[C@@H](O)C[C@@H]4C[C@H](O)CC[C@]4(C)[C@H]3CC[C@]12C [UA, ursodeoxycholate]
inhibition of vegetative growth of C. difficile, general statement [4]: capable of inhibiting the vegetative growth

C[C@H](CCC(=O)N(C)CC(=O)O)[C@H]1CC[C@H]2[C@@H]3[C@H](O)C[C@@H]4C[C@H](O)CC[C@]4(C)[C@H]3C[C@H](O)[C@]12C [cholylsarcosine]
resistance to deconjugation [8]: resistant to deconjugation

NCC(=O)O [glycine]
cogermination in buffer (OD600) [2]: germinated in the presence of taurocholate but not in its absence
germination (optical density), glycine plus taurocholate [2]: the efficiency of germination was enhanced
germination (optical density), single agent [2]: a small decrease in the optical density

C[C@H](CCC(=O)NCCS(=O)(=O)O)[C@H]1CC[C@H]2[C@@H]3[C@@H](O)C[C@@H]4C[C@H](O)CC[C@]4(C)[C@H]3CC[C@]12C [tauroursodeoxycholate]
deconjugation [7]: 100%
